Experimental findings from PMC6359144 (International Journal of Molecular Sciences, 2019) are described below.

Data set [1] concerns nude mice. Description: In vivo toxicity in nude mice. The following applies: 1 × 100 mg/kg i.p., 1 × 200 mg/kg orally. Set-up: species or system mouse. The procedure:
In vivo toxicity of 4d was studied in nude mice (Charles River Laboratories, Sulzfeld, Germany). These experiments were carried out following the institutional guidelines. 4d was formulated in 10% Tween80/10% ethanol/80% saline for administration. […] The body weight of the mice was assessed daily under therapy.

Data set [2] has as its system acetyl–alpha-tubulin in 518A2 melanoma cells. As to the kind of experiment: Western blot and immunofluorescence of acetyl-alpha-tubulin. The class given is cell-based, human. The following applies: 4f 4, 5, 6 µM (blot), 4 µM (immunofluorescence), 24 h. The procedure:
After harvesting the cells by trypsination, they were pelleted by centrifugation (300× g, 5 min) followed by cell lysis in 100 µL lysis buffer (20 mM DTT, 200 µM sodium vanadate, 50 mM Tris/HCl, 1% triton X-100, 150 mM NaCl, pH 7.4) for 10 min on ice. […] Equal amounts of total protein were subjected to 10% SDS-polyacrylamide gel electrophoresis (SDS-PAGE) and transferred to polyvinylidene difluoride membranes (PVDF, Carl Roth). For subsequent analysis of acetylated protein and of alpha-tubulin which was used as a loading control, membranes were blocked and incubated with primary antibody solutions in 5% bovine serum albumin in 1× TBS or 5% milk powder in PBS, respectively. The protein bands were visualized by chemoluminescence (secondary antibody-HRP conjugates, ECL detection system; Cell Signaling) using a LAS-3000 imager (Fujifilm).
Immuofluorescence staining of acetylated alpha- tubulin.
After washing the cells with PBS, they were fixed in 3.7% formaldehyde in PBS (20 min, rt) followed by blocking and permeabilization in TBS supplemented with 5% BSA and 0.1% triton X-100 (30 min, rt). […]
antibody conjugate in the dark (2 h, rt). […] Pictures were taken by using a Zeiss Imager A1 AX10 fluorescence microscope (400× magnification). […]
The open image area after 24 h (%) compared to that at 0 h was quantified from three independent experiments by using the imageJ 1.50i software. […]

Consider `COc1ccc(-c2ocnc2-c2cc(Br)c(OC)c(OC)c2)cc1OCCCC(=O)NO` [4d, N-Hydroxy-4-[1-methoxy-4-(4’-(3’’-bromo-4’’,5’’-dimethoxyphenyl)oxazol-5’-yl)-2-phenoxy]butanamide], for which the body weight changes in data set [1] is at most 5%. For the same compound, in data set [1] (observed two weeks), the tolerability in mice entry is on record as “tolerated well”.

In the case of `COc1ccc(-c2ocnc2-c2cc(Br)c(OC)c(OC)c2)cc1OCCCCCC(=O)NO` [4f, N-Hydroxy-6-[1-methoxy-4-(4’-(3’’-bromo-4’’,5’’-dimethoxyphenyl)oxazol-5’-yl)-2-phenoxy]hexanamide], the acetylation of alpha-tubulin entry in data set [2] is “distinct increase of acetyl–alpha-tubulin”.
